Assay results reported in patent US7786299B2, “Methods for treating diseases or conditions using dihydropteridinone compounds” (Boehringer Ingelheim Pharma GmbH & Co. KG, priority 2003, dated 2010).

How the values were obtained:
[1] = test system: HeLaS3 cells; test: Measurement of cytotoxicity on cultivated human tumour cells (AlamarBlue); type: cell-based; details: HeLa in Table 1; unit inferred
Experimental: The activity of the compounds according to the invention was determined in the cytotoxicity test on cultivated human tumour cells and/or in a FACS analysis, for example on HeLaS3 cells.
Measurement of Cytotoxicity on Cultivated Human Tumour Cells
To measure the cytotoxicity on cultivated human tumour cells, cells of the cervical cancer tumour cell line HeLaS3 (obtained from American Type Culture Collection (ATCC)) in Ham's F12 Medium (Life Technologies) and 10% foetal calf serum (Life Technologies) were cultivated and harvested in the logarithmic growth phase. Then the HeLaS3 cells were placed in 96-well plates (Costar) at a density of 1000 cells per well and incubated overnight in an incubator (at 37° C. and 5% CO2), while on each plate 6 wells were filled only with medium (3 wells as a control of the medium, 3 wells for incubation with reduced AlamarBlue). The active substances were added to the cells in various concentrations (dissolved in DMSO; final concentration: 1%) (in each case as a triple measurement). After 72 hours' incubation, 20 μl of AlamarBlue (AccuMed International) were added to each well, and the cells were incubated for a further 7 hours. As a control, 20 μl of reduced Alamar Blue (AlamarBlue reagent which had been autoclaved for 30 min) were added to 3 wells. After 7 h incubation the colour change of the AlamarBlue reagent in the individual wells was determined in a Perkin Elmer fluorescence spectrophotometer (excitation 530 nm, emission 590 nm, slits 15, integrate time 0.1). The amount of AlamarBlue reagent reacted represents the metabolic activity of the cells. The relative cell activity was calculated as a percentage of the control (HeLa S3 cells without inhibitor) and the active substance concentration which inhibits the cell activity by 50% (IC^50) was obtained. The values were calculated from the average of three individual measurements, correcting for the control value (medium control).

[2] = test system: H460-VINC; test: Cytotoxicity on H460-VINC cells (Table 1; method not given); type: cell-based; details: H460-VINC of Table 1; unit inferred

SMILES	IC50 [1] [nM]	IC50 [2] [nM]
COc1cc(C(=O)NC2CCC(N3CCOCC3)CC2)ccc1Nc1ncc2c(n1)N(C(C)C)C(C)C(=O)N2C (centres unmarked) [Example 26]	59	424
CC(C)N1CCC(NC(=O)c2ccc(Nc3ncc4c(n3)N(CC(C)(C)C)C(C)C(=O)N4C)cc2)CC1 (centres unmarked) [Example 12]	99	1070
COc1cc(C(=O)NC2CCN(C)CC2)ccc1Nc1ncc2c(n1)N(C1CCCC1)[C@H](C)C(=O)N2C [Example 80]	38	286
CCC1C(=O)N(C)c2cnc(Nc3ccc(C(=O)NCC(C)(C)CN(C)C)cc3OC)nc2N1C1CCCC1 (centres unmarked) [Example 58]	10	23
CC[C@@H]1C(=O)N(C)c2cnc(Nc3ccc(C(=O)NCCCCN(CC)CC)cc3OC)nc2N1CCC(C)C [Example 153]	72	2640
CCN1CCC(NC(=O)c2ccc(Nc3ncc4c(n3)N(C(C)C)C(C)C(=O)N4C)c(OC)c2)CC1 (centres unmarked) [Example 20]	83	≥ 3000
CC[C@@H]1C(=O)N(C)c2cnc(Nc3ccc(C(=O)NCC(C)(C)CN(C)C)cc3OC)nc2N1c1ccccc1 [Example 89]	47	245
CC1C(=O)N(C)c2cnc(Nc3ccc(C(=O)NC4CCC(N(C)C)CC4)cc3)nc2N1C1CCCC1 (centres unmarked) [Example 14]	55	≥ 3000
COc1cc(C(=O)NC2CCN(C(C)C)CC2)ccc1Nc1ncc2c(n1)N(CCC(C)C)C(C)C(=O)N2C (centres unmarked) [Example 2]	56	971
CC[C@@H]1C(=O)N(C)c2cnc(Nc3ccc(C(=O)NCCN4CCOCC4)cc3OC)nc2N1C(C)C [Example 71]	35	227
CC[C@@H]1C(=O)N(C)c2cnc(Nc3ccc(C(=O)NC4CCN(C)CC4)cc3OC)nc2N1C1CCCCC1 [Example 96]	11	577
CC(C)N1c2nc(Nc3ccc(C(=O)NC4CC(C)(C)N(C)C(C)(C)C4)cc3)ncc2N(C)C(=O)[C@H]1C [Example 33]	97	≥ 3000
CC[C@@H]1C(=O)N(C)c2cnc(Nc3ccc(C(=O)N[C@H]4CC[C@H](N5CCOCC5)CC4)cc3OC)nc2N1C1CCCCC1 [Example 97]	32	66
COc1cc(C(=O)NCCN(C)C)ccc1Nc1ncc2c(n1)N(C1CCCC1)C(C)C(=O)N2C (centres unmarked) [Example 67]	52	566
CC[C@@H]1C(=O)N(C)c2cnc(Nc3ccc(C(=O)NCCCN(C)C)cc3OC)nc2N1CCC(C)C [Example 164]	30	975
COc1cc(C(=O)NCCN2CCOCC2)ccc1Nc1ncc2c(n1)N(C1CCCC1)C(C)C(=O)N2C (centres unmarked) [Example 65]	52	216
COc1cc(C(=O)N[C@H]2CC[C@H](N3CCCC3)CC2)ccc1Nc1ncc2c(n1)N(C1CCCCC1)[C@H](C)C(=O)N2C [Example 98]	77	1320
CC[C@@H]1C(=O)N(C)c2cnc(Nc3ccc(C(=O)NCC(C)(C)CN(C)C)cc3OC)nc2N1CCC(C)C [Example 168]	42	88
CCC1C(=O)N(C)c2cnc(Nc3ccc(C(=O)NC(C)(C)CN4CCCC4)cc3OC)nc2N1C1CCCC1 (centres unmarked) [Example 55]	13	86
CC[C@@H]1C(=O)N(C)c2cnc(Nc3ccc(C(=O)NCCCN(CC)CC)cc3OC)nc2N1CCC(C)C [Example 165]	46	668
COc1cc(C(=O)NC2CCC(N3CCOCC3)CC2)ccc1Nc1ncc2c(n1)N(C1CCCCC1)C(C)C(=O)N2C (centres unmarked) [Example 137]	39	148
CCC1C(=O)N(C)c2cnc(Nc3ccc(C(=O)NC4CCC(N5CCCC5)CC4)cc3OC)nc2N1C1CCCC1 (centres unmarked) [Example 19]	13	747
COc1cc(C(=O)NC2CCN(C(C)C)CC2)ccc1Nc1ncc2c(n1)N(CC(C)(C)C)C(C)C(=O)N2C (centres unmarked) [Example 7]	84	865
COc1cc(C(=O)NCCCN2CCCCC2)ccc1Nc1ncc2c(n1)N(C1CCCC1)C(C)C(=O)N2C (centres unmarked) [Example 64]	64	894
CC[C@@H]1C(=O)N(C)c2cnc(Nc3ccc(C(=O)NC4CCN(C)CC4)cc3OC)nc2N1c1ccccc1 [Example 88]	20	1020
CCC1C(=O)N(C)c2cnc(Nc3ccc(C(=O)NC4CCC(N5CCCCC5)CC4)cc3OC)nc2N1C1CCCC1 (centres unmarked) [Example 128]	15	282

SMILES	IC50 [1] [nM]	IC50 [2] [nM]
COc1cc(C(=O)NC2CC3CCC(C2)N3C)ccc1Nc1ncc2c(n1)N(CCC(C)C)C(C)(C)C(=O)N2C (centres unmarked) [Example 43]	94	≥ 3000
CCC1C(=O)N(C)c2cnc(Nc3ccc(C(=O)NC4CCC(N5CCOCC5)CC4)cc3OC)nc2N1C(C)C (centres unmarked) [Example 28]	18	160
CCC1C(=O)N(C)c2cnc(Nc3ccc(C(=O)NCC(C)(C)CN(C)C)cc3OC)nc2N1C(C)C (centres unmarked) [Example 57]	38	67
Cc1cc(C(=O)NC2CCN(C)CC2)ccc1Nc1ncc2c(n1)N(C1CCCC1)[C@H](C)C(=O)N2C [Example 83]	69	263
COc1cc(C(=O)NC2CC(C)(C)N(C)C(C)(C)C2)ccc1Nc1ncc2c(n1)N(C(C)C)[C@H](C)C(=O)N2C [Example 32]	49	≥ 3000
COc1cc(C(=O)NC2CCN(C)CC2)ccc1Nc1ncc2c(n1)N(CCC(C)C)C(C)C(=O)N2C (centres unmarked) [Example 146]	66	966
CCN1CC[C@@H](NC(=O)c2ccc(Nc3ncc4c(n3)N(CCC(C)C)[C@H](C)C(=O)N4C)c(OC)c2)C1 [Example 37]	72	762
CC[C@@H]1C(=O)N(C)c2cnc(Nc3ccc(C(=O)NCCN4CCOCC4)cc3OC)nc2N1CCC(C)C [Example 156]	48	481
COc1cc(C(=O)NC2CCN(C3CCOCC3)CC2)ccc1Nc1ncc2c(n1)N(C1CCCCC1)C(C)C(=O)N2C (centres unmarked) [Example 120]	14	374
COc1cc(C(=O)NC2CC(C)(C)N(C)C(C)(C)C2)ccc1Nc1ncc2c(n1)N(CC(C)(C)C)C(C)C(=O)N2C (centres unmarked) [Example 5]	52	863
CC[C@@H]1C(=O)N(C)c2cnc(Nc3ccc(C(=O)NC(C)(C)CN(C)C)cc3OC)nc2N1CCC(C)C [Example 90]	32	137
CCC1C(=O)N(C)c2cnc(Nc3ccc(C(=O)NC4CCC(N5CCCC5)CC4)cc3OC)nc2N1C(C)C (centres unmarked) [Example 135]	12	699
CCN1CCC(NC(=O)c2ccc(Nc3ncc4c(n3)N(C3CCCC3)C(C)C(=O)N4C)c(OC)c2)CC1 (centres unmarked) [Example 17]	24	730
CCC1C(=O)N(C)c2cnc(Nc3ccc(C(=O)NC4CCN(C5CCOCC5)CC4)cc3OC)nc2N1C1CCCC1 (centres unmarked) [Example 116]	6	174
COc1cc(C(=O)NC2CCC(N(C)C)CC2)ccc1Nc1ncc2c(n1)N(C1CCCCC1)C(C)C(=O)N2C (centres unmarked) [Example 118]	10	279
COc1cc(C(=O)NCC(C)(C)CN(C)C)ccc1Nc1ncc2c(n1)N(C1CCCCC1)[C@H](C)C(=O)N2C [Example 86]	38	24
COc1cc(C(=O)NC2CC(C)(C)N(C)C(C)(C)C2)ccc1Nc1ncc2c(n1)N(C1CCCCC1)C(C)C(=O)N2C (centres unmarked) [Example 117]	10	370
COc1cc(C(=O)NC(C)(C)CN2CCCC2)ccc1Nc1ncc2c(n1)N(CC(C)(C)C)C(C)C(=O)N2C (centres unmarked) [Example 50]	81	436
CCN(CC)CCNC(=O)c1ccc(Nc2ncc3c(n2)N(C2CCCC2)C(C)C(=O)N3C)c(OC)c1 (centres unmarked) [Example 62]	58	538
COc1cc(C(=O)NCC(C)(C)CN(C)C)ccc1Nc1ncc2c(n1)N(C1CCCC1)C(C)C(=O)N2C (centres unmarked) [Example 60]	41	189
COc1cc(C(=O)NC2CCC(N3CCOCC3)CC2)ccc1Nc1ncc2c(n1)N(C1CCCC1)C(C)C(=O)N2C (centres unmarked) [Example 24]	17	277
COc1cc(C(=O)NC(C)(C)CN2CCCC2)ccc1Nc1ncc2c(n1)N(C(C)C)C(C)C(=O)N2C (centres unmarked) [Example 56]	64	324
COc1cc(C(=O)NCCCN(C)C)ccc1Nc1ncc2c(n1)N(C1CCCC1)[C@H](C)C(=O)N2C [Example 75]	46	557
CC1C(=O)N(C)c2cnc(Nc3ccc(C(=O)NC4CC5CCC(C4)N5C)cc3)nc2N1C1CCCC1 (centres unmarked) [Example 68]	92	1240
CC[C@@H]1C(=O)N(C)c2cnc(Nc3ccc(C(=O)NCCN(CC)CC)cc3OC)nc2N1CCC(C)C [Example 158]	43	536
COc1cc(C(=O)NC2CCC(N(C)C)CC2)ccc1Nc1ncc2c(n1)N(C1CCCC1)C(C)C(=O)N2C (centres unmarked) [Example 13]	26	1320
